No end group written: not given here.
Tests used:
[1] = tested on: naïve CD4+CD25− cells; experiment: Treg induction from naïve T cells by soluble factors (FoxP3 staining, flow cytometry); format: cell-based, mouse
[2] = cited from earlier work
[3] = tested on: dendritic cells / FoxP3+ CD4+ T-cells; experiment: VIP bioactivity assay: DC culture and CD4+ T cell chemotaxis; format: cell-based, mouse; conditions: LPS
Experimental: Three separate DC cultures with 24 individual wells were completed in accordance with Example XIII Both GM-CSF and IL-4 were used to culture the cells in the first two DC cell cultures, but for the third DC culture, the IL-4 was omitted to reduce its possible interference in steering immune cells toward a tolerogenic phenotype. Chemotaxis studies of CD4+ T-cells were performed and the percent of FoxP3+ T-cells which flowed through the transwells for each group was evaluated using flow. The data is presented as a normalized percent of FoxP3+ cells which were recruited by the DCs for the first DC when both IL-4 and GM-CSF were used to culture the DC precursors and when GM-CSF was used alone in the last DC culture. […] See, FIG. 15.
When the DC culture was repeated with the absence of IL-4 and addition of 5×GM-CSF, flow cytometry indicated slightly different trends. […]
In the first two experiments, both GM-CSF and IL-4 were added to DC media (modified RPMI 1640) of bone marrow cell cultures during media changes on Days 0, 3 and 6. […] Five different groups of four wells each were analyzed and received treatment. […]
CD4+ T-cells were isolated from the spleen and lymph nodes of a mouse using Dynal® beads following a standard protocol. […] T Cells that flowed through were analyzed for FoxP3+ expression using flow cytometry.

With “TGF-β: recombinant human TGF-β1 (CHO cell-derived, PeproTech), transforming growth factor β1” the “percent of CD4+ that express FoxP3” value ([1]; RA 0 ng/ml, TGF-β 0.5 ng/ml (Table 2)) was 8.08%, the “percent of CD4+ that express FoxP3” value ([1]; RA 0 ng/ml, TGF-β 5 ng/ml (Table 2)) was 28.52% and the “percent of CD4+ that express FoxP3” value ([1]; RA 0 ng/ml, TGF-β 20 ng/ml (Table 2)) was 27.42%. The “percent of CD4+ that express FoxP3” value ([1]; Rapa 0 ng/ml, TGF-β 0.1 ng/ml (Table 1)) was 0.61%, the “percent of CD4+ that express FoxP3” value ([1]; Rapa 0 ng/ml, TGF-β 1 ng/ml (Table 1)) was 2.82% and the “percent of CD4+ that express FoxP3” value ([1]; Rapa 0 ng/ml, TGF-β 5 ng/ml (Table 1)) was 18.16%. The “percent of CD4+ that express FoxP3” value ([1]; Rapa 0 ng/ml, TGF-β 20 ng/ml (Table 1)) was 53.26%.

With `CC1=C(/C=C/C(C)=C/C=C/C(C)=C/C(=O)O)C(C)(C)CCC1` [RA, all-trans retinoic acid] the “percent of CD4+ that express FoxP3” value ([1]; RA 0.1 ng/ml, TGF-β 0 ng/ml) was 2.71%, the “percent of CD4+ that express FoxP3” value ([1]; RA 0.1 ng/ml, TGF-β 0.5 ng/ml) was 11.98% and the “percent of CD4+ that express FoxP3” value ([1]; RA 0.1 ng/ml, TGF-β 5 ng/ml) was 35.18%. The “percent of CD4+ that express FoxP3” value ([1]; RA 0.1 ng/ml, TGF-β 20 ng/ml) was 28.33%, the “percent of CD4+ that express FoxP3” value ([1]; RA 1 ng/ml, TGF-β 0 ng/ml) was 2.64% and the “percent of CD4+ that express FoxP3” value ([1]; RA 1 ng/ml, TGF-β 0.5 ng/ml) was 10.5%. For the same molecule, the “percent of CD4+ that express FoxP3” value ([1]; RA 1 ng/ml, TGF-β 5 ng/ml) was 44.71%, the “percent of CD4+ that express FoxP3” value ([1]; RA 1 ng/ml, TGF-β 20 ng/ml) was 42.25% and the “percent of CD4+ that express FoxP3” value ([1]; RA 10 ng/ml, TGF-β 0 ng/ml) was 2.27%. For the same molecule, the “percent of CD4+ that express FoxP3” value ([1]; RA 10 ng/ml, TGF-β 0.5 ng/ml) was 9.36%, the “percent of CD4+ that express FoxP3” value ([1]; RA 10 ng/ml, TGF-β 5 ng/ml) was 42.22% and the “percent of CD4+ that express FoxP3” value ([1]; RA 10 ng/ml, TGF-β 20 ng/ml) was 45.97%. The “percent of CD4+ that express FoxP3” value ([1]; RA 100 ng/ml, TGF-β 0 ng/ml) was 2.23%, the “percent of CD4+ that express FoxP3” value ([1]; RA 100 ng/ml, TGF-β 0.5 ng/ml) was 10.01% and the “percent of CD4+ that express FoxP3” value ([1]; RA 100 ng/ml, TGF-β 5 ng/ml) was 50.71%. The “percent of CD4+ that express FoxP3” value ([1]; RA 100 ng/ml, TGF-β 20 ng/ml) was 43.43% and the “toxicity upon local administration” value [2] was “induce hypervitaminosis-A”.

With `CO[C@H]1C[C@@H]2CC[C@@H](C)[C@@](O)(O2)C(=O)C(=O)N2CCCC[C@H]2C(=O)O[C@H]([C@H](C)C[C@@H]2CC[C@@H](O)[C@H](OC)C2)CC(=O)[C@H](C)/C=C(\C)[C@@H](O)[C@@H](OC)C(=O)[C@H](C)C[C@H](C)/C=C/C=C/C=C/1C` [Rapa, rapamycin] the “percent of CD4+ that express FoxP3” value ([1]; Rapa 1 ng/ml, TGF-β 0 ng/ml) was 1.91%, the “percent of CD4+ that express FoxP3” value ([1]; Rapa 1 ng/ml, TGF-β 0.1 ng/ml) was 3.04% and the “percent of CD4+ that express FoxP3” value ([1]; Rapa 1 ng/ml, TGF-β 1 ng/ml) was 8.89%. The “percent of CD4+ that express FoxP3” value ([1]; Rapa 1 ng/ml, TGF-β 5 ng/ml) was 34.41%, the “percent of CD4+ that express FoxP3” value ([1]; Rapa 1 ng/ml, TGF-β 20 ng/ml) was 76.22% and the “percent of CD4+ that express FoxP3” value ([1]; Rapa 10 ng/ml, TGF-β 0 ng/ml) was 3.45%. For the same molecule, the “percent of CD4+ that express FoxP3” value ([1]; Rapa 10 ng/ml, TGF-β 0.1 ng/ml) was 5.31%, the “percent of CD4+ that express FoxP3” value ([1]; Rapa 10 ng/ml, TGF-β 1 ng/ml) was 14.48% and the “percent of CD4+ that express FoxP3” value ([1]; Rapa 10 ng/ml, TGF-β 5 ng/ml) was 51.08%. For the same molecule, the “percent of CD4+ that express FoxP3” value ([1]; Rapa 10 ng/ml, TGF-β 20 ng/ml) was 78.27%, the “percent of CD4+ that express FoxP3” value ([1]; Rapa 100 ng/ml, TGF-β 0 ng/ml) was 4.13% and the “percent of CD4+ that express FoxP3” value ([1]; Rapa 100 ng/ml, TGF-β 0.1 ng/ml) was 7.8%. For the same molecule, the “percent of CD4+ that express FoxP3” value ([1]; Rapa 100 ng/ml, TGF-β 1 ng/ml) was 22.05%, the “percent of CD4+ that express FoxP3” value ([1]; Rapa 100 ng/ml, TGF-β 5 ng/ml) was 54.19% and the “percent of CD4+ that express FoxP3” value ([1]; Rapa 100 ng/ml, TGF-β 20 ng/ml) was 80.36%.

With “VIP: Vasoactive intestinal peptide, a 28-amino acid neuropeptide (HSDAVFTDNYTRLRKQMAVKKYLNSILN; ends and bridges not checked; UniProt P01282 125-152, looked up)” the “percentage of FoxP3+ cells recruited by treated DCs” value ([3]; DC precursors cultured with IL-4 and GM-CSF, versus LPS only or blank particle releasates) was “recruited a higher percentage of FoxP3+ cells” and the “percentage of FoxP3+ cells recruited by treated DCs” value ([3]; no IL-4, 5×GM-CSF, relative to LPS alone) was “recruited the same percentage of FoxP3+ cells”.

Reference: patent US12491159B2, “Controlled release formulations for the induction and proliferation of blood cells” (UNIVERSITY OF PITTSBURGH—OF THE COMMONWEALTH SYSTEM OF …, priority 2012, dated 2025)
